Assay results as given in PubChem BioAssay AID2384 (Southern Research Specialized Biocontainment Screening …, 2010).
pIC50: −log10 of the molar value. Where “and” joins values, the source holds several entries; their conditions need not be identical. Equal entries are not always repeated.

Tested on: S. typhi GFP reporter counter-screen, fluorescence, 4 h
Assay: inhibitors in S. typhi counter-screen strain, dose response, counter-screen for PhoP regulon inhibitor project, fluorescence, 4 h (AID 2384)

SMILES | pIC50
CCCCCCCCCCCCCCCC[N+](C)(C)C | 4.71
Cc1cc(N2CCC(C)CC2)nc(NCc2ccccc2)n1 | 4.29
CCCCCCCCCCOC(=O)Cn1c(COc2ccc(Cl)cc2)[n+](C)c2ccccc21 | 5.00
O=C(CCc1ccccc1)NNC(=S)NC(=O)c1ccccc1 | 4.20
Oc1ccc(C[C@@H]2CNCCN2CCC23CC4CC(CC(C4)C2)C3)cc1 | 4.39
CN(C)C1C(=O)C(C(N)=O)=C(O)C2(O)C(=O)C3=C(O)c4c(O)cccc4C(C)(O)C3CC12 (stereo not drawn) | 5.77
Cc1ccc(NC2=NCCCS2)cc1Cl | 3.90
COc1ccc(/C=C/c2cc(-c3ccc(C)cc3)o[n+]2C)cc1 | 4.37
O=C(O)c1ccc(N2C(=O)CSC2=S)cc1 | 3.86
CCN(CC(O)COc1ccc(OCC(O)CN(CC)C2CCCCC2)cc1)C1CCCCC1 (stereo not drawn) | 4.28
COc1ccc(C(=O)N/N=C/c2sc3ccccc3c2O)cc1 | 4.20
CSc1cccc(NC(=O)/C=C/c2ccccc2)c1 | 4.14
Cc1ccc(C(=O)N/C(=C\c2ccc(-c3ccc(Br)cc3)o2)C(=O)NCCCN(C)C)cc1 | 4.43
O=C(Nc1cccc(NC(=O)c2ccccc2Cl)c1)c1ccc([N+](=O)[O-])o1 | 4.00
O=c1c2ccccc2[nH]c2ccccc12 | 4.21
CCOC(=O)N/N=C\c1ccc([N+](=O)[O-])o1 | 4.51
NC1=NC[C@@H](Cc2ccc(O)cc2)N1CCCCC1CCCCC1 | 4.83
O=C(CC1NCCc2ccccc21)Nc1ccc(Oc2ccccc2)cc1 (stereo not drawn) | 4.29
Nc1nc2ccccc2n1Cc1ccc(Cl)c(Cl)c1 | 4.13
OCCCNc1c2ccccc2nc2ccccc12 | 3.96
O=C(N/N=C/c1cc(O)ccc1Br)c1cccnc1 | 4.16
CN(C)CCNC(=O)/C(=C/c1ccc(-c2ccc(Cl)cc2)o1)NC(=O)c1ccccc1 | 4.20
CCn1cc(C(=O)O)c(=O)c2cc(F)c(N3CCN(C(=S)NC(=O)c4ccc(Br)cc4)CC3)cc21 | 4.25

SMILES | pIC50
CN(C)CCCNc1cc(C(C)(C)C)nc2c(-c3ccccc3)cnn12 | 4.50
Cc1cccc(Nc2nc(NCc3ccco3)c3ccccc3n2)c1 | 4.85
COC(=O)N/N=C/c1c[n+]([O-])c2ccccc2[n+]1[O-] | 4.04
Cc1cc(C)c2nc(C)cc(N/N=C/c3ccc(O)cc3)c2c1 | 4.24
CCCCCNc1nc(N2CCCC2)c2c(c1C#N)CCN(C)C2 | 4.44
COc1ccc2c(c1OC)C(=O)N(c1ccc(C)cc1)C2=O | 3.98
CN1CCN(/N=C/c2c3ccccc3c(Cl)c3ccccc23)CC1 | 4.13
CC(C)C1N=C(c2ccc3c(c2)OCO3)CC(c2ccccc2O)N1 (stereo not drawn) | 3.93
O=Nc1ccc(O)c2ncccc12 | 4.70
O=C(N/N=C/c1cc([N+](=O)[O-])ccc1O)C1CC1 | 4.69
CCCCOc1ccc(CSC(=N)N)cc1Cl | 4.72
CCCCCOc1ccc(C)cc1CN(CCCl)CCCl | 4.15
CCn1cc(C(=O)O)c(=O)c2cc(F)c(N3CCNCC3)cc21 | 6.31
CCn1cc(C(=O)O)c(=O)c2ccc(C)nc21 | 4.08
O=C(N/N=C/c1ccc([N+](=O)[O-])o1)C1CCCC1 | 4.43
O=C(N/N=C/c1cc(Cl)cc([N+](=O)[O-])c1O)C1CC1 | 4.01
CC(C)CCC(CCNCc1ccccn1)c1ccc(Cl)cc1 (stereo not drawn) | 4.26
O=C(O)c1sccc1Oc1ccc(F)cc1[N+](=O)[O-] | 4.88
Cc1cc(C2CCCCC2)n(O)c(=O)c1 | 4.86
Nc1cc2c3c(cccc3c1)C(=O)N(CCN1CCCC1)C2=O | 3.89
CC[C@H]1OC(=O)[C@H](C)[C@@H](O[C@H]2C[C@@](C)(OC)[C@@H](O)[C@H](C)O2)[C@H](C)[C@@H](O[C@@H]2O[C@H](C)C[C@H](N(C)C)[C@H]2O)[C@](C)(O)C[C@@H](C)CN(C)[C@H](C)[C@@H](O)[C@]1(C)O | 5.89
NC1=NC[C@H](Cc2ccccc2)N1CCCCC1CCCCC1 | 4.71
Cc1cc(C)n(-c2nc(SCCN(C)C)c3c4c(sc3n2)CCCC4)n1 | 4.42

SMILES | pIC50
C=CCOc1ccc(Cl)cc1CNC1CCCC1 | 3.99
Oc1ccccc1-c1cc(C(F)(F)C(F)F)[nH]n1 | 4.09
C=CC1=C(C(=O)O)N2C(=O)[C@@H](NC(=O)/C(=N/OCC(=O)O)c3csc(N)n3)[C@H]2SC1 | 4.78
O=[N+]([O-])c1ccc(O)c2ncccc12 | 6.10
Cc1cc(C)nc(/N=C(\N)Nc2ccc(SC(F)F)cc2)n1 | 4.29
Oc1c(CN2CCN(c3ccccn3)CC2)cc(Cl)c2cccnc12 | 4.75
COc1nsnc1NS(=O)(=O)c1ccc(NC(=S)NC(=O)c2cccnc2)cc1 | 4.16
O=C(NCCCN1CCOCC1)c1sc2cc(Cl)ccc2c1Cl | 4.09
C#CCOCCOCCOCCNc1nc(N2CCN(C(=O)CCCCCCCCCCNC(=O)[C@H]([C@@H](C)CC)n3cc(CCCCN=C(N)N)nn3)CC2)nc(N2CCN(C(=O)CCCCCCCCCCNC(=O)[C@H](CCCCN)n3cc(C)nn3)CC2)n1 | 4.32
CNC[C@@H](CC1CCCCC1)NC[C@H](CC(C)C)NCCc1cccc(C(F)(F)F)c1 | 4.73
CO/N=C(/C(=O)N[C@@H]1C(=O)N2C(C(=O)O)=CCS[C@H]12)c1cnc(N)s1 | 4.57
CCNC(=O)Oc1ccc[nH]c1=O | 4.27
COc1ccc(C(=O)CCN2CCc3cc(OC)c(OC)cc3C2)cc1 | 3.92
CN1CCN(CCCN2c3ccccc3Sc3ccc(C(F)(F)F)cc32)CC1 | 4.44
CCC(O)(CC)C(=O)N/N=C/c1cc(Br)cc(Br)c1O | 4.15
C#CCOCCOCCOCCNc1nc(N2CCN(C(=O)CCCCCCCCCCNC(=O)Cn3cc(CCCCCN)nn3)CC2)nc(N2CCN(C(=O)CCCCCCCCCCNC(=O)[C@H]([C@@H](C)CC)n3cc(CCCCN=C(N)N)nn3)CC2)n1 | 4.42
CCCCOc1ccc(NC2=NC3(CCCCC3)N=C(N)N2)cc1 | 4.46
CC(C)(c1ccccc1)c1ccc(OCCCN2CCNCC2)cc1 | 4.40
Cc1ccc2c(c1)C1CN(C)CCC1N2C(=O)COc1ccccc1F (stereo not drawn) | 3.96
CCN1CCCC1CNC(=O)c1cc2cc(F)ccc2[nH]1 (stereo not drawn) | 4.72
CCCCOc1ccc(Br)cc1CSC(=N)N | 4.85
O=C(CCN1CCOCC1)c1ccc(Br)cc1 | 4.14
O=c1[nH]cc(F)c(=O)[nH]1 | 5.60

SMILES | pIC50
CN(Cc1ccccc1)CC(O)COc1ccc(CNCc2ccc(Cl)s2)cc1 (stereo not drawn) | 4.52
O=C(/C=C(\O)c1ccccc1)C(=O)NNC(=O)c1ccccc1 | 4.35
CN1CCN(C2Cc3ccc(Cl)cc3Sc3ccc(F)cc32)CC1 (stereo not drawn) | 4.70
Cc1cc(C2N=C(N)Nc3nc4ccccc4n32)c(C)n1-c1ccccc1Cl (stereo not drawn) | 4.48
CC1(C)N=C(N)NC(Nc2cccc(Br)c2)=N1 | 4.14
CCCCCC(=O)NNC(=S)NC(C)=O | 4.54
O=C(N/N=C/c1cc(Br)ccc1O)c1ccncc1 | 4.69
CCCCCC(CC(=O)NO)C(=O)NC(C(=O)N1CCCC1CO)C(C)C (stereo not drawn) | 4.69
CSc1ccccc1NC(=O)CN1CCCCC1C (stereo not drawn) | 3.88
CC[C@H](C)[C@@H](CN[C@H](C)CNC)NCCC(c1ccccc1)c1ccccc1 | 4.30
COc1cccc(/C=N/NC(=O)c2ccoc2C)c1O | 3.86
O=C(CCN1Cc2ccccc2C1)c1ccc2c(c1)OCCO2 | 3.86
COc1cc([N+](=O)[O-])cc(/C=N/NC(=O)c2cccnc2)c1O | 4.12
O=C(Oc1c(Cl)cc(Cl)c2cccnc12)c1cccc([N+](=O)[O-])c1 | 5.03
CC[C@H]1OC(=O)[C@H](C)[C@@H](O[C@H]2C[C@@](C)(OC)[C@@H](O)[C@H](C)O2)[C@H](C)[C@@H](O[C@@H]2O[C@H](C)C[C@H](N(C)C)[C@H]2O)[C@](C)(OC)C[C@@H](C)C(=O)[C@H](C)[C@@H](O)[C@]1(C)O | 4.53
Cc1ccc(Nc2nc(N)c3ccccc3n2)cc1Cl | 4.44
Cc1ccc2nc(N(CCCN(C)C)C(=O)c3sc4ccccc4c3Cl)sc2c1 | 4.61
CCCN(CCC)CCNC(=O)C1CCN(Cc2nc(-c3ccc(Cl)cc3)oc2C)CC1 | 4.24
NC1=NC2(CCCCC2)N=C(Nc2ccc(Br)cc2)N1 | 4.45
CCOC(=O)c1c(N)sc(C(=O)Nc2ccc3c(c2)OCO3)c1C | 3.88
CCCCCCCCCCCCCCCC[N+](C)(C)CCN(Cc1ccc(OC)cc1)c1ncccn1 | 4.72
C#CCOCCOCCOCCNc1nc(N2CCN(C(=O)CCCCCCCCCCNC(=O)[C@H](CCCCN)n3cc(CCO)nn3)CC2)nc(N2CCN(C(=O)CCCCCCCCCCNC(=O)[C@H](CCCCN)n3cc(C[C@@H](C)CC)nn3)CC2)n1 | 4.70
CN1CC(C(=O)c2ccc(Cl)cc2)C(c2ccc(Cl)cc2Cl)C1 (stereo not drawn) | 4.63

SMILES | pIC50
Oc1ccccc1Nc1nc(NCc2ccco2)c2ccccc2n1 | 4.29
O=C(N/N=C/c1ccc([N+](=O)[O-])s1)c1ccccc1Br | 4.11
CCN(CC)c1ccc(CNc2nc3ccccc3n2C)cc1 | 4.09
O=C(Oc1c(Br)cc([N+](=O)[O-])cc1Br)c1cccnc1 | 4.55
Cc1cccc(OCC(O)Cn2c(=N)n(CCN3CCCCC3)c3ccccc32)c1 (stereo not drawn) | 4.98
CCCCCCCCCCCCOC(=O)C[N+](C)(C)C | 4.70
O=C(NNc1nc2ccc(F)cc2s1)c1cccc(F)c1 | 4.33
CNCC[C@H](Oc1cccc2ccccc12)c1cccs1 | 4.32
O=C(N/N=C/c1ccccc1O)C1SCCCS1 | 4.14
Clc1cccc(CN2CCc3c([nH]c4ccccc34)C2)c1Cl | 3.87
CCn1cc(C(=O)O)c(=O)c2cc(F)c(N3CCN(C(=O)Nc4ccccc4)CC3)cc21 | 4.29
Cc1ccc(C(=O)O)cc1N=Cc1cc(Br)cc(Br)c1O | 4.78
CN(C)[C@@H]1C(=O)C(C(N)=O)=C(O)[C@@]2(O)C(=O)C3=C(O)c4c(O)cccc4[C@@](C)(O)C3[C@H](O)C12 (stereo partly drawn) | 6.51 and 5.75
O=C(Oc1c(Cl)cc(Cl)c2cccnc12)c1ccco1 | 4.81
CN(C)CC/C=C1/c2cc(F)ccc2Sc2ccc(Cl)cc21 | 4.46
Nc1nc(Nc2ccc(Cl)cc2)nc2ccccc12 | 4.77
CC1CCC(C(C)C)C(OC(=O)C[n+]2cc(-c3ccc(Cl)cc3)n3c2CCC3)C1 (stereo not drawn) | 4.40
CSc1ccc2c(c1)N(CCC1CCCCN1C)c1ccccc1S2 (stereo not drawn) | 4.43
Cc1cc(OCCCCCNCCO)cc(C)c1Cl | 3.97
CS(=O)(=O)c1ccc([C@@H](O)[C@@H](CF)NC(=O)C(Cl)Cl)cc1 | 5.29
C1=C(CCNCc2ccccc2)CCCC1 | 4.77
